Measured values published in PMC10485906, “Development of a Dihydroquinoline–Pyrazoline GluN2C/2D-Selective Negative Allosteric Modulator of the N-Methyl-D-aspartate Receptor” (ACS Chemical Neuroscience, 2023).

Tested on: not listed separately
Experiment: Liver microsome stability, mouse
Type: in vitro ADME
Details: CD-1, mouse, liver microsomes, incubation up to 30 min; 3 μM; read-out: liver microsome stability T1/2, mouse
Protocol: Human liver microsomes (HLMs, 20 mg/mL) and CD-1 mouse liver microsomes (MLMs, 20 mg/mL) were purchased from Xenotech. NADPH was purchased from Sigma-Aldrich and prepared in 10 mM stock solutions of distilled H2O (Invitrogen UltraPure). Verapamil and diphenhydramine were both purchased from Sigma-Aldrich and served as positive controls for HLM and MLM stability, respectively. Test compounds and positive controls were initially dissolved in DMSO to make 10 mM stock solutions. Sample solutions were then further diluted in 70% MeOH/H2O or 100% MeCN to 500 μM. Next, the reactions were prepared by mixing human or mouse liver microsomes (55 μL) with potassium phosphate buffer (100 mM, […]) in 1.5 mL Eppendorf tubes. The test compounds (6.6 μL of 500 μM solution) were subsequently added to the suspensions, and the reaction mixtures were incubated at 37 °C for 5 min. Afterward, the liver microsome reactions were initiated with 110 μL of 10 mM NADPH and further incubated at 37 °C for the designated time course of the study. This procedure provided experiments with a final volume of 1100 μL (<0.6% organic solvent content), a concentration for HLMs and MLMs of 1 mg/mL, and a final test compound concentration of 3 μM. Aliquots (100 μL) were removed from each reaction mixture in duplicate at 0, 5, 10, 15, and 30 min time intervals and quenched with 100 μL of cold internal standard solution (ISTD, 2 μM 7-ethoxy-d5-coumarin in MeOH or MeCN). Quenched aliquots were then centrifuged at 12 500 g for 5–10 min, and the resulting supernatants were withdrawn and placed in LC-MS vials to be analyzed by LC-MS/MS (Agilent G6460C QQQ MS coupled with an Infinity II 1260 HPLC). Each test compound was run in tandem with positive and negative control experiments for quality assurance. Positive control reactions were conducted at a final volume of 550 μL for a single run at each time point. Lastly, the negative control experiment was conducted with test compounds and liver microsomes in the absence of NADPH (150 μL) and analyzed at the 30 min time point.
(§1) For both LM and plasma assays, each data point was analyzed in triplicate using between blank washes to avoid carry over and to equilibrate the column for the subsequent runs. Averages of these triplicates for individual compounds at each time point were then normalized to the data at 0 min, representing 100% of the test compound remaining or 0% metabolism. Half-lives (t1/2) were calculated by plotting ln of % test compound remaining versus time and performing linear regression to determine slope. Slope = −k and t1/2 = 0.693/k for first-order kinetics (see Figures S5 and S6 for a representative example).

| Compound | half-life at 3 μM [min] |
| --- | --- |
| O=C(CC(F)(F)C(=O)N1N=C(c2c(-c3ccc(Cl)cc3)c3ccccc3[nH]c2=O)CC1c1ccc(Cl)cc1)OCC1CC1 (stereo not drawn) [2n] | 1.8 |
| CC(C)(C)COC(=O)CC(F)(F)C(=O)N1N=C(c2c(-c3ccc(Cl)cc3)c3ccccc3[nH]c2=O)CC1c1ccc(Cl)cc1 (stereo not drawn) [2o] | 4 |
| O=C(O)CC(F)(F)C(=O)N1N=C(c2c(-c3ccc(Cl)cc3)c3ccccc3[nH]c2=O)CC1c1ccc(Cl)cc1 (stereo not drawn) [2i] | > 30 |
| O=C(CC(F)(F)C(=O)N1N=C(c2c(-c3ccc(Cl)cc3)c3ccccc3[nH]c2=O)CC1c1ccc(Cl)cc1)OCc1ccccc1 (stereo not drawn) [2p] | 7.2 |
| CCOC(=O)CC(F)(F)C(=O)N1N=C(c2c(-c3ccc(Cl)cc3)c3ccccc3[nH]c2=O)CC1c1ccc(Cl)cc1 (stereo not drawn) [2l] | 2.6 |
| CC(C)OC(=O)CC(F)(F)C(=O)N1N=C(c2c(-c3ccc(Cl)cc3)c3ccccc3[nH]c2=O)CC1c1ccc(Cl)cc1 (stereo not drawn) [2m] | 2.9 |
| O=C(O)CCC(=O)N1N=C(c2c(-c3ccc(Cl)cc3)c3ccccc3[nH]c2=O)CC1c1ccc(Cl)cc1 (stereo not drawn) [2a] | > 30 |
| NC(=O)CC(F)(F)C(=O)N1N=C(c2c(-c3ccc(Cl)cc3)c3ccccc3[nH]c2=O)CC1c1ccc(Cl)cc1 (stereo not drawn) [2k] | > 30 |
| CNC(=O)CC(F)(F)C(=O)N1N=C(c2c(-c3ccc(Cl)cc3)c3ccccc3[nH]c2=O)CC1c1ccc(Cl)cc1 (stereo not drawn) [2q] | ≤ 7 |

Same assay, conditions: CD-1, mouse, liver microsomes; over the assay time course (30 min); read-out: % remaining, mouse LMs

| Compound | remaining at 0.5 h, 3 µM [%] |
| --- | --- |
| O=C(O)CC(F)(F)C(=O)N1N=C(c2c(-c3ccc(Cl)cc3)c3ccccc3[nH]c2=O)CC1c1ccc(Cl)cc1 (stereo not drawn) [2i] | > 95 |
| O=C(O)CCC(=O)N1N=C(c2c(-c3ccc(Cl)cc3)c3ccccc3[nH]c2=O)CC1c1ccc(Cl)cc1 (stereo not drawn) [2a] | > 95 |
| NC(=O)CC(F)(F)C(=O)N1N=C(c2c(-c3ccc(Cl)cc3)c3ccccc3[nH]c2=O)CC1c1ccc(Cl)cc1 (stereo not drawn) [2k] | > 90 |

Same assay, conditions: CD-1, mouse, mouse liver microsomes

| Compound | microsomal CLint at 3 μM [µL/min/mg] |
| --- | --- |
| O=C(CC(F)(F)C(=O)N1N=C(c2c(-c3ccc(Cl)cc3)c3ccccc3[nH]c2=O)CC1c1ccc(Cl)cc1)OCC1CC1 (stereo not drawn) [2n] | 385 |
| CC(C)(C)COC(=O)CC(F)(F)C(=O)N1N=C(c2c(-c3ccc(Cl)cc3)c3ccccc3[nH]c2=O)CC1c1ccc(Cl)cc1 (stereo not drawn) [2o] | 173 |
| O=C(O)CC(F)(F)C(=O)N1N=C(c2c(-c3ccc(Cl)cc3)c3ccccc3[nH]c2=O)CC1c1ccc(Cl)cc1 (stereo not drawn) [2i] | < 23 |
| O=C(CC(F)(F)C(=O)N1N=C(c2c(-c3ccc(Cl)cc3)c3ccccc3[nH]c2=O)CC1c1ccc(Cl)cc1)OCc1ccccc1 (stereo not drawn) [2p] | 96 |
| CN(C)C(=O)CC(F)(F)C(=O)N1N=C(c2c(-c3ccc(Cl)cc3)c3ccccc3[nH]c2=O)CC1c1ccc(Cl)cc1 (stereo not drawn) [2r] | 231 |
| CCOC(=O)CC(F)(F)C(=O)N1N=C(c2c(-c3ccc(Cl)cc3)c3ccccc3[nH]c2=O)CC1c1ccc(Cl)cc1 (stereo not drawn) [2l] | 267 |
| CC(C)OC(=O)CC(F)(F)C(=O)N1N=C(c2c(-c3ccc(Cl)cc3)c3ccccc3[nH]c2=O)CC1c1ccc(Cl)cc1 (stereo not drawn) [2m] | 239 |
| O=C(O)CCC(=O)N1N=C(c2c(-c3ccc(Cl)cc3)c3ccccc3[nH]c2=O)CC1c1ccc(Cl)cc1 (stereo not drawn) [2a] | < 23 |
| NC(=O)CC(F)(F)C(=O)N1N=C(c2c(-c3ccc(Cl)cc3)c3ccccc3[nH]c2=O)CC1c1ccc(Cl)cc1 (stereo not drawn) [2k] | < 23 |
| CNC(=O)CC(F)(F)C(=O)N1N=C(c2c(-c3ccc(Cl)cc3)c3ccccc3[nH]c2=O)CC1c1ccc(Cl)cc1 (stereo not drawn) [2q] | 178 |

Tested on: not listed separately
Experiment: Plasma stability, mouse
Type: in vitro ADME
Details: after 2 h
Protocol: Human plasma (lithium heparin (LiHep) mixed, gender pooled, 0.2 μm filtered) and mouse plasma (BALB/C, LiHep mixed, male pooled, 0.2 μm filtered) were purchased from BioIVT. Procaine (Sigma-Aldrich) served as a positive control for both human and mouse plasma experiments. Test compounds and positive controls were initially dissolved in DMSO to make 10 mM stock solutions. The solutions of test and control compounds were then further diluted in 70% MeOH/H2O or 100% MeCN to 500 μM. Next, the human or mouse plasma (994 μL) was aliquoted into 1.5 mL Eppendorf tubes with duplicates (reactions A and B) being prepared for each compound. The plasma was then incubated at 37 °C for 10 min. Afterward, the reaction was initiated by the addition of the test compound (6 μL of 500 μM solution) and further incubated at 37 °C for the designated time course of the study. This procedure provided duplicate experiments with a final volume of 1000 μL (<0.6% organic solvent content) and a final test compound concentration of 3 μM. Aliquots (100 μL) were removed from each reaction mixture at 0, 15, 30, 60, and 120 min time intervals and quenched with 150 μL of cold ISTD solution (2 μM 7-ethoxy-d5-coumarin in MeOH or MeCN). Quenched aliquots were then centrifuged at 15,000 g for 30–45 min, and the resulting supernatants (∼70 μL) were withdrawn and placed in LC-MS vials to be analyzed by LC-MS/MS (Agilent G6460C QQQ MS coupled with an Infinity II 1260 HPLC). Each test compound was run in tandem with positive and negative control experiments for quality assurance. The positive control reaction was conducted at a final volume of 1000 μL for a single run at each time point. Finally, the negative control experiment was conducted with test compounds in DPBS (143 μL) and analyzed at the 120 min time point.
as §1

| Compound | metabolized in mouse plasma (% of prodrug) [%] |
| --- | --- |
| NC(=O)CC(F)(F)C(=O)N1N=C(c2c(-c3ccc(Cl)cc3)c3ccccc3[nH]c2=O)CC1c1ccc(Cl)cc1 (stereo not drawn) [2k] | 42 |

Same assay, conditions: male, BALB/C, mouse, mouse plasma; incubation up to 120 min; 3 μM; read-out: plasma stability T1/2, mouse

| Compound | half-life at 3 μM [min] |
| --- | --- |
| O=C(CC(F)(F)C(=O)N1N=C(c2c(-c3ccc(Cl)cc3)c3ccccc3[nH]c2=O)CC1c1ccc(Cl)cc1)OCC1CC1 (stereo not drawn) [2n] | 1.3 |
| CC(C)(C)COC(=O)CC(F)(F)C(=O)N1N=C(c2c(-c3ccc(Cl)cc3)c3ccccc3[nH]c2=O)CC1c1ccc(Cl)cc1 (stereo not drawn) [2o] | 4 |
| O=C(O)CC(F)(F)C(=O)N1N=C(c2c(-c3ccc(Cl)cc3)c3ccccc3[nH]c2=O)CC1c1ccc(Cl)cc1 (stereo not drawn) [2i] | > 120 |
| O=C(CC(F)(F)C(=O)N1N=C(c2c(-c3ccc(Cl)cc3)c3ccccc3[nH]c2=O)CC1c1ccc(Cl)cc1)OCc1ccccc1 (stereo not drawn) [2p] | 1.4 |
| CN(C)C(=O)CC(F)(F)C(=O)N1N=C(c2c(-c3ccc(Cl)cc3)c3ccccc3[nH]c2=O)CC1c1ccc(Cl)cc1 (stereo not drawn) [2r] | > 120 |
| CCOC(=O)CC(F)(F)C(=O)N1N=C(c2c(-c3ccc(Cl)cc3)c3ccccc3[nH]c2=O)CC1c1ccc(Cl)cc1 (stereo not drawn) [2l] | 4.2 |
| CC(C)OC(=O)CC(F)(F)C(=O)N1N=C(c2c(-c3ccc(Cl)cc3)c3ccccc3[nH]c2=O)CC1c1ccc(Cl)cc1 (stereo not drawn) [2m] | 37 |
| O=C(O)CCC(=O)N1N=C(c2c(-c3ccc(Cl)cc3)c3ccccc3[nH]c2=O)CC1c1ccc(Cl)cc1 (stereo not drawn) [2a] | > 120 |
| NC(=O)CC(F)(F)C(=O)N1N=C(c2c(-c3ccc(Cl)cc3)c3ccccc3[nH]c2=O)CC1c1ccc(Cl)cc1 (stereo not drawn) [2k] | > 120 |
| CNC(=O)CC(F)(F)C(=O)N1N=C(c2c(-c3ccc(Cl)cc3)c3ccccc3[nH]c2=O)CC1c1ccc(Cl)cc1 (stereo not drawn) [2q] | > 120 |

Same assay, conditions: male, BALB/C, mouse, plasma; over the assay time course

| Compound | remaining at 120 min, 3 µM [%] |
| --- | --- |
| O=C(O)CC(F)(F)C(=O)N1N=C(c2c(-c3ccc(Cl)cc3)c3ccccc3[nH]c2=O)CC1c1ccc(Cl)cc1 (stereo not drawn) [2i] | > 95 |
| O=C(O)CCC(=O)N1N=C(c2c(-c3ccc(Cl)cc3)c3ccccc3[nH]c2=O)CC1c1ccc(Cl)cc1 (stereo not drawn) [2a] | > 95 |

Molecular target: T1, CYP2D6 (Homo sapiens, UniProt P10635)
T1 construct: purchased Corning; host or cells: insect cells (microsomes)
Experiment: Fluorometric CYP450 enzyme inhibition assay, CYP2D6
Type: in vitro ADME
Details: n = 2 (2k n = 4)
Protocol: CYP450 inhibition assays utilized microsomes from insect cells that express recombinant human CYP2D6 and CYP3A4 isoforms (Corning) with substrates of CYP2D6 (3-[2-(N,N-diethyl-N-methylammonium)-ethyl]-7-methoxy-4-methylcoumarin iodide, AMMC) and CYP3A4 (7-benzyloxy-4-trifluoromethylcoumarin, BFC) capable of producing fluorescent metabolites.[51],[52] […] A 100 mM sodium phosphate buffer was prepared and adjusted to a pH 7.4. In a separate falcon tube, a 2× enzyme–substrate (E–S) solution was prepared in phosphate buffer. The final concentrations of CYP2D6 and AMMC were 10 nM and 4 μM, respectively. The final concentrations of CYP3A4 and BFC were 20 nM and 40 μM, respectively. In a separate falcon tube, 2X solutions of the NADPH regenerating system (NRS) were prepared in phosphate buffer. The final concentrations for each NRS component in the corresponding assays were as follows: (1) CYP2D6 assay = 0.008 mM NADPH, 3.3 mM glucose-6-phosphate, and 0.4 U of glucose-6-phosphate dehydrogenase/mL and (2) CYP3A4 assay = 2.45 mM NADPH, 24.7 mM glucose-6-phosphate, and 1.25 U of glucose-6-phosphate dehydrogenase/mL.
Both enzymatic assays were conducted in a 96-well microtiter plate (Black, Corning Costar) with a final volume of 100 μL per well. Preparation of each plate began with the addition of 74 μL of the 2× E–S solution in the first well and 50 μL to all remaining wells (2–11) in the same row. […] 3-Fold serial dilutions of the test compounds were subsequently conducted by removing 25 μL from the first well and adding it to the second, followed by removing 25 μL from the second well and adding it to the third, and so forth until the 10th row. This procedure provided final concentrations for the test compound ranging from 100 to 0.01 μM across the same row (50 μL total for each well). Well 11 contained no test compound (0% inhibition and 100% activity). Well 12 contained 50 μL of substrate and test compound (100 μM) absent from the enzyme (0% activity, 100% inhibition). Wells 11 and 12 were used as controls for background fluorescence as described below. Each plate was then incubated for 30 min at 37 °C. After incubation was complete, reactions were initiated by the addition of 50 μL of 2X NRS to wells 1–12 (final well volume of 100 μL). Fluorescence measurements were immediately (<1 min) taken using a microplate reader (BioTek Synergy Neo 2). CYP2D6 was monitored at Ex/Em = 410/460 nm, and CYP3A4 was monitored at Ex/Em = 410/538 nm. Next, measurements were conducted in kinetic mode with scans every 5 min for 60 min. Two time points (30 and 60 min) were then chosen in the linear phase of the kinetic graph (reaction progression curve), and the corresponding relative fluorescence units (RFUs) at these time points were used to determine the rate of change in fluorescence according to the following equations [drawing 6] 3 [drawing 7] 4 [drawing 8] 5 where eq 3 defines the difference in RFUs between the 60 and 30 min time points, eq 4 normalizes the background-adjusted ΔRFU to no inhibitor control, and eq 5 converts % inhibition to % activity.
The resulting data were then exported and analyzed using Graph Pad Prism v7. The concentration of each test compound required to inhibit 50% substrate metabolism (IC50) was subsequently calculated from the resulting 10-point concentration–response curves (normalized fluorescence versus log[inhibitor]) using four-parameter logistic nonlinear regression (see Figure S4B for a representative example).

T1 sequence (P10635 whole entry): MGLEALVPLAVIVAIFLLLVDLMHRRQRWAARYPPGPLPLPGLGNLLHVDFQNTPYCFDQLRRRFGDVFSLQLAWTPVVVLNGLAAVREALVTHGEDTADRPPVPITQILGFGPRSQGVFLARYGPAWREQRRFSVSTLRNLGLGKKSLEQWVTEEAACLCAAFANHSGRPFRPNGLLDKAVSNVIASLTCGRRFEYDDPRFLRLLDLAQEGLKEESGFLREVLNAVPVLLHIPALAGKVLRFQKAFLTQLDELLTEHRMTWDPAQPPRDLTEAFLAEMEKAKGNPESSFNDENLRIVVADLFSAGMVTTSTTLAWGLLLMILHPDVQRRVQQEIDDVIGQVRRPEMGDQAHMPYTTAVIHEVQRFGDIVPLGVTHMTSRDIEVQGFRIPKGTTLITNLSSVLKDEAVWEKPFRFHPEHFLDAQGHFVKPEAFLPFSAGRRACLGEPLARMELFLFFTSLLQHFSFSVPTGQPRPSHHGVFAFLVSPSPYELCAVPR

| Compound | IC50 [µM] |
| --- | --- |
| O=C(CC(F)(F)C(=O)N1N=C(c2c(-c3ccc(Cl)cc3)c3ccccc3[nH]c2=O)CC1c1ccc(Cl)cc1)OCC1CC1 (stereo not drawn) [2n] | > 20 |
| CC(C)(C)COC(=O)CC(F)(F)C(=O)N1N=C(c2c(-c3ccc(Cl)cc3)c3ccccc3[nH]c2=O)CC1c1ccc(Cl)cc1 (stereo not drawn) [2o] | > 20 |
| O=C(O)CC(F)(F)C(=O)N1N=C(c2c(-c3ccc(Cl)cc3)c3ccccc3[nH]c2=O)CC1c1ccc(Cl)cc1 (stereo not drawn) [2i] | > 20 |
| O=C(CC(F)(F)C(=O)N1N=C(c2c(-c3ccc(Cl)cc3)c3ccccc3[nH]c2=O)CC1c1ccc(Cl)cc1)OCc1ccccc1 (stereo not drawn) [2p] | > 20 |
| CN(C)C(=O)CC(F)(F)C(=O)N1N=C(c2c(-c3ccc(Cl)cc3)c3ccccc3[nH]c2=O)CC1c1ccc(Cl)cc1 (stereo not drawn) [2r] | > 20 |
| CCOC(=O)CC(F)(F)C(=O)N1N=C(c2c(-c3ccc(Cl)cc3)c3ccccc3[nH]c2=O)CC1c1ccc(Cl)cc1 (stereo not drawn) [2l] | > 20 |
| CC(C)OC(=O)CC(F)(F)C(=O)N1N=C(c2c(-c3ccc(Cl)cc3)c3ccccc3[nH]c2=O)CC1c1ccc(Cl)cc1 (stereo not drawn) [2m] | > 20 |
| O=C(O)CCC(=O)N1N=C(c2c(-c3ccc(Cl)cc3)c3ccccc3[nH]c2=O)CC1c1ccc(Cl)cc1 (stereo not drawn) [2a] | 18 ± 0.8 |
| NC(=O)CC(F)(F)C(=O)N1N=C(c2c(-c3ccc(Cl)cc3)c3ccccc3[nH]c2=O)CC1c1ccc(Cl)cc1 (stereo not drawn) [2k] | > 20 |
| CNC(=O)CC(F)(F)C(=O)N1N=C(c2c(-c3ccc(Cl)cc3)c3ccccc3[nH]c2=O)CC1c1ccc(Cl)cc1 (stereo not drawn) [2q] | > 20 |
